Patent US10508118B2, “Pyrimidopyrrole compounds, method for preparing the same, pharmaceutical compositions comprising the same and uses thereof” (Xiamen University, priority 2015, dated 2019)
Read-outs that look alike come from different tables or passages of the source.

Legend:
Assay type in all cases: cell-based
wild type BaF3 = experiment: Growth inhibition of wild type BaF3 cells (broad-spectrum toxicity); settings: Mus musculus, BaF3, 48 h, MTS
Procedure: (§1) The activity of compounds against ALK kinase was evaluated by inhibiting the growth of cellular ALK kinase EML4-ALK-BaF3, EML4-ALK (L1196M)-BaF3, NPM-ALK-BaF3, and wild type BaF3 (Proc. Natl. Acad. Sci. USA., 2006, 103, 3153-8.) The growth of cellular ALK kinase EML4-ALK-BaF3, EML4-ALK(L1196M)-BaF3, and NPM-ALK-BaF3 depends on their kinase activity. If compounds can inhibit the activity of ALK kinase or the activity of ALK signaling pathway, they can inhibit the growth of ALK transformed Ba/F3 cells. […] The broad-spectrum toxicity of compounds can be evaluated by determining the effect of the compounds on the growth of wild type BaF3 cells.
(§2) 1) Medium: DMEM (Dulbecco's modified eagle medium) or RPMI1640 (containing 10% fetal bovine serum, 100 μg/mL ampicillin, 100 μg/mL streptomycin).)
(§3) Reagents: MTS solution (2 mg/mL MTS (3-(4,5-dimethylthiazol-2-yl)-5-(3-carboxymethoxyphenyl)-2-(4-sulfophenyl)-2H-tetrazolium, inner salt); 100 μg/mL PES ([…])).
(§4) 3) Test of compound: Transformed Ba/F3 cells (EML4-ALK-BaF3, EML4-ALK(L1196M)-BaF3, NPM-ALK-BaF3) (2×10^4/well) were distributed into 96-well plates, with volume of cell sap of 90 μL, 10 μL of compounds in gradient concentration (the highest concentration 10 was μM, followed by 1/3 step by step dilution, a total of 8 concentrations were set, the system contained 0.1% DMSO (dimethyl sulfoxide)). The cell plates mixed with compounds were cultured in a cell incubator (37° C.; 5% CO2) for 48 hours, and the added 20 μL of MTS reaction solution, mixed and incubated in cell incubator (37° C.; 5% CO2) for 1-4 hours. The OD value at a wavelength of 490 nm was measured using eliasa (VARIOSKAN FLASH, Thermo). Three parallels were set up for each group, with a final concentration of 0.1% DMSO as negative control, and with medium without cells and compounds as blank control. The inhibition rate of cell growth was calculated by the following formula: Cell inhibition rate %=1−(OD experimental group−OD blank group)/(OD negative group−OD blank group)*100%
(§5) 4) Calculation of IC50 value: the semi inhibitory concentration of the compound acting on the cells was calculated using GradPad Prism 5 software according to the cell inhibitory rate measured.

EML4-ALK-BaF3 = target: T1, EML4-ALK-BaF3 (Homo sapiens, UniProt Q9UM73); experiment: Growth inhibition of EML4-ALK transformed BaF3 cells (MTS); settings: for IC50: EML4-ALK-BaF3 cells, 48 hours, MTS
T1 construct: expressed in transfected cells; host or cells: Ba/F3 cells; the other entry of the earlier key: EML4 (Q9HC35, Echinoderm microtubule-associated protein-like 4)
Procedure: (§6) If compounds can inhibit the activity of ALK kinase or the activity of ALK signaling pathway, they can inhibit the growth of ALK transformed Ba/F3 cells. […] The broad-spectrum toxicity of compounds can be evaluated by determining the effect of the compounds on the growth of wild type BaF3 cells.
as §2, §3
as §4, with “control.” for “control. The inhibition rate of cell growth was calculated by the following formula: Cell inhibition rate %=1−(OD experimental group−OD blank group)/(OD negative group−OD blank group)*100%”
as §5

EML4-ALK (L1196M)-BaF3 = target: T2, EML4-ALK (L1196M)-BaF3 (Homo sapiens, UniProt Q9UM73, L1196M); experiment: Growth inhibition of EML4-ALK (L1196M) transformed BaF3 cells (MTS); settings: 48 hours
T2 construct: expressed in transfected cells; host or cells: Ba/F3 cells; the other entry of the earlier key: EML4 (Q9HC35, Echinoderm microtubule-associated protein-like 4)
Procedure: as §6, §2, §3
as §4, with “control.” for “control. The inhibition rate of cell growth was calculated by the following formula: Cell inhibition rate %=1−(OD experimental group−OD blank group)/(OD negative group−OD blank group)*100%”
as §5

NPM-ALK-BaF3 = target: T3, NPM-ALK-BaF3 (Homo sapiens, UniProt Q9UM73); experiment: Growth inhibition of NPM-ALK transformed BaF3 cells (MTS); settings: 48 hours
T3 construct: expressed in transfected cells; host or cells: Ba/F3 cells; the other entry of the earlier key: NPM1 (P06748, Nucleophosmin)
Procedure: as §1, §2, §3, §4, §5

[1] = Table 12, read-out: L1196M (IC50 nM)
[2] = Table 11, read-out: EML4-ALK (L1196M) (IC50 nM)

| Compound | IC50 (wild type BaF3; Table 12) [nM] | IC50 (EML4-ALK-BaF3; Table 12) [nM] | targeting selectivity (EML4-ALK-BaF3; ratio of IC50 between wild-type BaF3 and ALK transformed BaF3 cells) | IC50 (EML4-ALK (L1196M)-BaF3; [1]) [nM] | IC50 (NPM-ALK-BaF3; Table 12) [nM] | IC50 (wild type BaF3; Table 11) [nM] | IC50 (EML4-ALK-BaF3; Table 11) [nM] | IC50 (EML4-ALK (L1196M)-BaF3; [2]) [nM] | IC50 (NPM-ALK-BaF3; Table 11) [nM] |
| --- | --- | --- | --- | --- | --- | --- | --- | --- | --- |
| COc1cc(N2CCC(N3CCN(C)CC3)CC2)ccc1Nc1nc(Nc2ccccc2S(=O)(=O)C(C)C)c2c(ccn2C)n1 [IID-2] | 2910 | 330 | good targeting selectivity | 391 | 829 |  |  |  |  |
| COC(=O)c1ccccc1Nc1nc(Nc2ccc(N3CCOCC3)cc2OC)nc2cc[nH]c12 [IG-16] |  |  |  |  |  | 2350 | 1370 | 1390 | 1740 |
| CCOc1cc(C(=O)N2CCC(N3CCN(C)CC3)CC2)ccc1Nc1nc(Nc2ccccc2SC(C)C)c2c(ccn2C)n1 [IIB-5] | ~2870 | ~2720 |  | ~2780 | ~1370 |  |  |  |  |
| COC(=O)c1ccccc1Sc1nc(Nc2ccc(N3CCN(C)CC3)cc2OC)nc2cc[nH]c12 [IU-1] |  |  |  |  |  | > 10000 | > 10000 | > 10000 | > 10000 |
| COc1cc(C(=O)N2CCC(N3CCN(C)CC3)CC2)ccc1Nc1nc(NCc2ccccc2S(C)(=O)=O)c2c(ccn2C)n1 [IIK-6] | > 10000 | > 10000 |  | > 10000 | > 10000 |  |  |  |  |
| COC(=O)c1ccccc1Sc1nc(Nc2ccc(N3CCC(O)CC3)cc2)nc2cc[nH]c12 [IU-3] |  |  |  |  |  | 6520 | 4900 | 4180 | 8270 |
| CC(C)S(=O)(=O)c1ccccc1CNc1nc(Nc2ccc(S(N)(=O)=O)cc2)nc2ccn(C)c12 [IIL-4] | > 10000 | > 10000 |  | > 10000 | > 10000 |  |  |  |  |
| CSc1ccccc1CNc1nc(Nc2ccc(N3CCC(O)CC3)cc2)nc2cc[nH]c12 [IL-3] |  |  |  |  |  | 5180 | 3500 | 5020 | 5180 |
| CC(C)S(=O)(=O)c1ccccc1Nc1nc(Nc2ccc(S(N)(=O)=O)cc2)nc2ccn(C)c12 [IID-4] | 7540 | ~3290 |  | ~6440 | ~6350 |  |  |  |  |
| CC(C)S(=O)(=O)c1ccccc1Nc1nc(Nc2cnn(C3CCN(C)CC3)c2)nc2cc[nH]c12 [ID-8] |  |  |  |  |  | > 10000 | 5170 | 5680 | > 10000 |
| CCNc1nc(Nc2ccc(N3CCC(N4CCN(C)CC4)CC3)cc2OC)nc2cc[nH]c12 [IR-2] |  |  |  |  |  | > 10000 | > 10000 | > 10000 | > 10000 |
| CC(C)S(=O)(=O)c1ccccc1Nc1nc(Nc2ccc(N3CCN(C)CC3)cc2)nc2ccn(C)c12 [IID-5] | ~7940 | ~1130 |  | ~1120 | ~2580 |  |  |  |  |
| CC(C)Sc1ccccc1Nc1nc(Nc2ccc(S(N)(=O)=O)cc2)nc2ccn(C)c12 [IIB-4] | 4880 | 3020 |  | 4210 | 4570 |  |  |  |  |
| CCNc1nc(Nc2ccc(N3CCN(C)CC3)cc2OC)nc2cc[nH]c12 [IR-1] |  |  |  |  |  | > 10000 | > 10000 | > 10000 | > 10000 |
| CSc1ccccc1Nc1nc(Nc2ccc(N3CCN(C)CC3)cc2)nc2ccn(C)c12 [IIA-6] | 1370 | 644 |  | 978 | 536 |  |  |  |  |
| COc1cc(N2CCN(C)CC2)ccc1Nc1nc(NCc2ccccc2SC(C)C)c2[nH]ccc2n1 [IM-1] |  |  |  |  |  | ~867 | ~300 | 587 | 572 |
| CC(C)S(=O)(=O)c1ccccc1Nc1nc(Nc2ccc(N3CCC(O)CC3)cc2)nc2ccn(C)c12 [IID-3] | > 10000 | 2160 |  | 6650 | 6990 |  |  |  |  |

| Compound | IC50 (wild type BaF3; Table 12) [nM] | IC50 (EML4-ALK-BaF3; Table 12) [nM] | targeting selectivity (EML4-ALK-BaF3; ratio of IC50 between wild-type BaF3 and ALK transformed BaF3 cells) | IC50 (EML4-ALK (L1196M)-BaF3; [1]) [nM] | IC50 (NPM-ALK-BaF3; Table 12) [nM] | IC50 (wild type BaF3; Table 11) [nM] | IC50 (EML4-ALK-BaF3; Table 11) [nM] | IC50 (EML4-ALK (L1196M)-BaF3; [2]) [nM] | IC50 (NPM-ALK-BaF3; Table 11) [nM] |
| --- | --- | --- | --- | --- | --- | --- | --- | --- | --- |
| COc1cc(C2CCN(C)CC2)c(C)cc1Nc1nc(Nc2ccccc2S(=O)(=O)C(C)C)c2[nH]ccc2n1 [ID-7] |  |  |  |  |  | ~2960 | 544 | ~1080 | ~1170 |
| Cn1ccc2nc(Nc3ccc(S(N)(=O)=O)cc3)nc(Nc3ccccc3S(C)(=O)=O)c21 [IIC-4] | > 10000 | > 10000 |  | 28200 | > 10000 |  |  |  |  |
| COC(=O)c1ccccc1Nc1nc(Nc2ccc(OCc3ccccn3)cc2)nc2cc[nH]c12 [IG-8] |  |  |  |  |  | 3860 | 1830 | 1530 | 1670 |
| COc1cc(N2CCC(N3CCN(C)CC3)CC2)ccc1Nc1nc(NC2CC2)c2[nH]ccc2n1 [IS-2] |  |  |  |  |  | > 10000 | > 10000 | 5030 | > 10000 |
| COC(=O)c1ccccc1Oc1nc(Nc2ccc(S(N)(=O)=O)cc2)nc2cc[nH]c12 [IV-4] |  |  |  |  |  | > 10000 | > 10000 | > 10000 | > 10000 |
| CN1CCN(c2ccc(Nc3nc(Nc4ccccc4S(C)(=O)=O)c4c(ccn4C)n3)cc2)CC1 [IIC-5] | ~7730 | ~3240 |  | 4410 | 3780 |  |  |  |  |
| CC(C)Sc1ccccc1CNc1nc(Nc2ccc(S(N)(=O)=O)cc2)nc2ccn(C)c12 [IIJ-3] | > 10000 | > 10000 |  | 9700 | > 10000 |  |  |  |  |
| CS(=O)(=O)c1ccccc1Nc1nc(Nc2ccc(N3CCC(O)CC3)cc2)nc2cc[nH]c12 [IC-3] |  |  |  |  |  | > 10000 | > 10000 | > 10000 | > 10000 |
| COC(=O)c1ccccc1Nc1nc(Nc2ccc(N3CCN(C)CC3)cc2OC)nc2cc[nH]c12 [IG-1] |  |  |  |  |  | 2340 | 1470 | 1160 | 1800 |
| CNc1nc(Nc2ccc(C(=O)N3CCOCC3)cc2OC)nc2cc[nH]c12 [IQ-5] |  |  |  |  |  | > 10000 | > 10000 | > 10000 | > 10000 |
| COc1cc(N2CCC(N3CCN(C)CC3)CC2)ccc1Nc1nc(Nc2ccccc2S(C)(=O)=O)c2[nH]ccc2n1 [IC-2] |  |  |  |  |  | ~8770 | 3680 | ~6860 | ~4910 |
| COC(=O)c1ccccc1Nc1nc(Nc2ccc(N3CCC(N4CCCC4)CC3)cc2OC)nc2cc[nH]c12 [IG-7] |  |  |  |  |  | ~994 | 286 | 409 | 1210 |
| COC(=O)c1ccccc1Sc1nc(Nc2ccc(N3CCC(N4CCN(C)CC4)CC3)cc2OC)nc2cc[nH]c12 [IU-2] |  |  |  |  |  | ~8340 | 4580 | 2670 | 4900 |
| COC(=O)c1ccccc1Oc1nc(Nc2ccc(N3CCN(C)CC3)cc2OC)nc2ccn(C)c12 [IIN-1] | ~9960 | ~5750 |  | 6470 | > 10000 |  |  |  |  |
| CC(C)S(=O)(=O)c1ccccc1CNc1nc(Nc2ccc(N3CCN(C)CC3)cc2)nc2ccn(C)c12 [IIL-5] | ~2760 | 1140 |  | 1530 | 848 |  |  |  |  |
| COc1cc(N2CCN(C)CC2)ccc1Nc1nc(NCc2ccccc2S(C)(=O)=O)c2c(ccn2C)n1 [IIK-1] | 3280 | ~2700 |  | 2100 | 1980 |  |  |  |  |
| CC(C)Sc1ccccc1CNc1nc(Nc2ccc(N3CCC(O)CC3)cc2)nc2ccn(C)c12 [IIJ-2] | ~2860 | 1710 |  | 1610 | 1610 |  |  |  |  |
